What was measured:
[1] = system: NCI-H322M; test: NCI-60 screen (SRB), non-small cell lung cancer; type: cell-based; settings: Homo sapiens; for IC50: five-dose screen; for CC50: read-out: LC50
Method: All compounds selected by the US National Cancer Institute (NCI) were initially tested at a single dose (10^−5 M) on the full panel of 60 cancer cell lines represented by leukemia, melanoma, lung, colon, central nervous system (CNS), ovarian, kidney, prostate and breast cancer. Only compounds that were able to satisfy the predetermined inhibition criteria against a minimum number of cell lines proceeded to five-dose assays ([…], 0.1 and 0.01 μM).
In these studies, human cancer cell lines were cultured in a RPMI-1640 medium containing 5% fetal bovine serum and 2 mM of L-glutamine. Following the protocol for a typical assay, cells were inoculated into 96-well plates and incubated at 37 °C, 5% CO2, 95% air, and 100% relative humidity for 24 h prior to the addition of the compounds to be tested. After 24 h, two plates of each cell line were fixed in situ with trichloroacetic acid (TCA) to represent a measure of the cell population for each cell line at the time of sample addition (Tz). Compounds were dissolved in DMSO to 400-fold the maximum desired concentration for analysis and subsequently diluted to twice the maximum desired concentration with medium containing 50 μg/mL gentamicin. An additional series of four dilutions at 10-fold concentration was performed to provide a total of five concentrations of the compound plus the control. Aliquots of 100 μL of these dilutions were taken and added to 96-well plates already containing 100 μL of the medium, resulting in the final required concentrations of the sample. The plates were incubated for 48 h at the same conditions. For adherent cells, the assay was terminated with the addition of cold TCA. Cells were fixed in situ by the slow addition of 50 μL of 50% (w/v) cold ATC (final concentration, 10% TCA) and incubated for 60 min at 4 °C. The supernatant was discarded, and the plates were washed five times with tap water and air dried. A quantity of 100 μL of 0.4% (w/v) sulforhodamine B (SRB) solution in 1% acetic acid was added to each well, and each plate was incubated for 10 min at room temperature. Upon completion of staining, unbound pigment was removed by five washes with 1% acetic acid and the plates were air-dried. The stains were solubilized with 10 mM Trizma base and absorbance was recorded on an automated plate reader at a wavelength of 515 nm. Using the absorbance measurements [time zero (Tz), growth control in the absence of the sample and growth test in the presence of the sample at the five concentration levels (Ti)], the percent growth was calculated for each sample at the concentration levels. The percent growth was calculated as: [(Ti − Tz)/(C − Tz)] × 100 for concentrations for which Ti > Tz, and [(Ti − Tz)/Tz] × 100 for concentrations for which Ti < Tz. Two dose-response parameters were calculated for each compound. The 50% growth inhibition (GI50) was calculated from [(Ti − Tz)/(C − Tz)] × 100 = 50, which is the sample concentration at which the net increase in protein is 50% lower in treated cells (as measured by SRB staining) compared to the net increase in protein seen in control cells and the LC50 (sample concentration at which a 50% reduction in protein measured at the end of treatment compared to the beginning), indicating a net loss of cells; calculated from [(Ti − Tz)/Tz] × 100 = −50. Values were calculated for each of these two parameters if the activity level was reached; however, if the effect was not reached or was exceeded, the value for that parameter was expressed as greater or less than the maximum or minimum of the concentration tested.

[2] = system: CCRF-CEM; test: NCI-60 screen (SRB), leukemia; settings: Homo sapiens; for CC50: read-out: LC50
[3] = system: MALME-3M; test: NCI-60 screen (SRB), melanoma; settings: Homo sapiens; for CC50: read-out: LC50
[4] = system: M14; test: NCI-60 screen (SRB), melanoma; settings: Homo sapiens; for IC50: M14; for CC50: M14, read-out: LC50
[5] = system: SK-MEL-2; test: NCI-60 screen (SRB), melanoma; settings: for IC50 / CC50: Homo sapiens; for IC50: SK-MEL-2; for CC50: SK-MEL-2, read-out: LC50
[6] = system: UACC-257; test: NCI-60 screen (SRB), melanoma; settings: Homo sapiens; for IC50: UACC-257; for CC50: UACC-257, read-out: LC50
[7] = system: SNB-19; test: NCI-60 screen (SRB), CNS cancer; settings: Homo sapiens; for IC50: SNB-19; for CC50: SNB-19, read-out: LC50
[8] = system: SNB-75; test: NCI-60 screen (SRB), CNS cancer; settings: Homo sapiens; for IC50: SNB-75; for CC50: SNB-75, read-out: LC50
[9] = system: COLO 205; test: NCI-60 screen (SRB), colon cancer; settings: for IC50 / CC50: Homo sapiens; for IC50: COLO 205; for CC50: COLO 205, read-out: LC50; for lethality: COLO 205, single dose 10 μM
[10] = system: HCT-116; test: NCI-60 screen (SRB), colon cancer; settings: for IC50 / CC50: Homo sapiens; for IC50: HCT-116; for CC50: HCT-116, read-out: LC50
[11] = system: 786-0; test: NCI-60 screen (SRB), renal cancer; settings: Homo sapiens; for IC50: 786-0; for CC50: 786-0, read-out: LC50
[12] = system: RXF 393; test: NCI-60 screen (SRB), renal cancer; settings: for IC50 / CC50: Homo sapiens; for IC50: RXF 393; for CC50: RXF 393, read-out: LC50; for lethality: RXF 393, single dose 10 μM
[13] = system: BT-549; test: NCI-60 screen (SRB), breast cancer; settings: Homo sapiens; for IC50: BT-549; for CC50: BT-549, read-out: LC50
[14] = system: OVCAR-3; test: NCI-60 screen (SRB), ovarian cancer; settings: Homo sapiens; for IC50: OVCAR-3; for CC50: OVCAR-3, read-out: LC50
[15] = system: PC-3; test: NCI-60 screen (SRB), prostate cancer; settings: Homo sapiens; for IC50: PC-3; for CC50: PC-3, read-out: LC50
[16] = system: NCI-H226; test: NCI-60 screen (SRB), non-small cell lung cancer; settings: for IC50 / CC50: Homo sapiens; for IC50: NCI-H226; for CC50: NCI-H226, read-out: LC50
[17] = system: NCI-H460; test: NCI-60 screen (SRB), non-small cell lung cancer; settings: for IC50 / CC50: Homo sapiens; for IC50: NCI-H460; for CC50: NCI-H460, read-out: LC50
[18] = system: NCI-H522; test: NCI-60 screen (SRB), non-small cell lung cancer; settings: Homo sapiens; for IC50: NCI-H522; for CC50: NCI-H522, read-out: LC50

Row | SMILES | IC50 [1] [µM] | CC50 [1] [µM] | IC50 [2] [µM] | CC50 [2] [µM] | IC50 [3] [µM] | CC50 [3] [µM] | IC50 [4] [µM] | CC50 [4] [µM] | IC50 [5] [µM] | CC50 [5] [µM] | IC50 [6] [µM] | CC50 [6] [µM] | IC50 [7] [µM] | CC50 [7] [µM] | IC50 [8] [µM] | CC50 [8] [µM] | IC50 [9] [µM] | CC50 [9] [µM] | IC50 [10] [µM] | CC50 [10] [µM] | also measured
1 | COc1cc(OC)c(S(N)(=O)=O)cc1C(=O)C=Cc1ccccc1 [Compound 17a, 5-Cinnamoyl-2,4-dimethoxybenzenesulfonamide] | 10.7 | 47.6 | 3.93 | > 100 | 13.9 | 61.9 | 7.51 | 60.5 | 12.6 | 55.9 | 9.96 | 47.8 | 14 | 58 | 2.08 | 26.9 | 10.6 | 54.2 | 1.49 | 67.2 | IC50 [11]: 4.82 µM; CC50 [11]: 63.2 µM; IC50 [12]: 1.9 µM; CC50 [12]: 30 µM; lethality [12]: 29.73%; IC50 [13]: 2.65 µM; CC50 [13]: 40.6 µM; IC50 [14]: 2.71 µM; CC50 [14]: 38.3 µM; IC50 [15]: 5.95 µM; CC50 [15]: 50.4 µM; IC50 [16]: 10 µM; CC50 [16]: 69.2 µM; IC50 [17]: 1.95 µM; CC50 [17]: 51.2 µM; IC50 [18]: 6.56 µM; CC50 [18]: 49.7 µM
2 | COc1cc(OC)c(S(N)(=O)=O)cc1C(=O)/C=C/c1ccc(Cl)cc1 [Compound 17b, (E)-5-(3-(4-Chlorophenyl)acryloyl)-2,4-dimethoxybenzenesulfonamide] | 2.31 | 38.7 | 1.52 | > 100 | 2.79 | 87.4 | 1.47 | 6.7 | 11.5 | 57.2 | 5.46 | 71.6 | 3.17 | > 100 | 1.5 | 6.95 | 1.66 | 5.88 | 0.75 | 5.13 | lethality [9]: 30.00%; IC50 [11]: 1.9 µM; CC50 [11]: 9.83 µM; IC50 [12]: 1.62 µM; CC50 [12]: 6.89 µM; lethality [12]: 40.37%; IC50 [13]: 2.73 µM; CC50 [13]: 5.97 µM; IC50 [14]: 3.51 µM; CC50 [14]: 66.8 µM; IC50 [15]: 1.6 µM; CC50 [15]: 20.8 µM; IC50 [16]: 2.56 µM; CC50 [16]: > 100 µM; lethality ([16]; NCI-H226, single dose 10 μM): 25.96%; IC50 [17]: 2.84 µM; CC50 [17]: > 100 µM; IC50 [18]: 1.63 µM; CC50 [18]: 7.14 µM
3 | COc1cc(OC)c(S(N)(=O)=O)cc1C(=O)/C=C/c1ccc(C)cc1 [Compound 17c, (E)-2,4-Dimethoxy-5-(3-(p-tolyl)acryloyl)benzenesulfonamide] | 2.87 | 34.7 | 3.99 | > 100 | 8.55 | 59.5 | 3.25 | 56 | 11.5 | 55.7 | 3.86 | 41.9 | 3.65 | 45.3 | 1.84 | 18.2 | 3.33 | 41.7 | 30.6 | 58 | IC50 [11]: 3.85 µM; CC50 [11]: > 100 µM; IC50 [12]: 2.24 µM; CC50 [12]: 28.8 µM; lethality [12]: 28.21%; IC50 [13]: 2.18 µM; CC50 [13]: 31.6 µM; IC50 [14]: 3.05 µM; CC50 [14]: > 100 µM; IC50 [15]: 3.42 µM; CC50 [15]: 55.1 µM; IC50 [16]: 4.14 µM; CC50 [16]: 90.8 µM; IC50 [17]: 2.24 µM; CC50 [17]: 44.3 µM; lethality ([17]; NCI-H460, single dose 10 μM): 3.51%; IC50 [18]: 2.48 µM; CC50 [18]: 32.5 µM
4 | COc1cc(OC)c(S(=O)(=O)N(CCCl)CCCl)cc1C(=O)/C=C/c1cc(OC)c(OC)c(OC)c1 [Compound 18e, (E)-N,N-bis(2-Chloroethyl)-2,4-dimethoxy-5-(3-(3,4,5-trimethoxyphenyl)acryloyl)benzenesulfonamide] | 3 | > 100 | 1.69 | > 100 | 7.18 | > 100 | 5.45 | > 100 | 4.65 | 27.6 | 3.89 | 9.14 | 5.71 | 45.7 | 8.53 | > 100 | 4.46 | 8.39 | 2.82 | 6.47 | lethality ([5]; SK-MEL-2, single dose 10 μM): 94.49%; lethality [9]: 89.76%; lethality ([10]; HCT-116, single dose 10 μM): 87.74%; IC50 [11]: 5.66 µM; CC50 [11]: > 100 µM; IC50 [12]: 2.83 µM; CC50 [12]: 6.44 µM; IC50 [13]: 2.92 µM; CC50 [13]: 6.24 µM; IC50 [14]: 6.62 µM; CC50 [14]: > 100 µM; IC50 [15]: > 100 µM; CC50 [15]: > 100 µM; IC50 [16]: 2.61 µM; CC50 [16]: > 100 µM; IC50 [17]: 1.95 µM; CC50 [17]: > 100 µM; IC50 [18]: 1.66 µM; CC50 [18]: 8.59 µM

From publication PMC9604400, “Synthesis, Anticancer and Antitubercular Properties of New Chalcones and Their Nitrogen-Containing Five-Membered Heterocyclic Hybrids Bearing Sulfonamide Moiety” (International Journal of Molecular Sciences, 2022)
